Results taken from patent US20060153933A1 (priority 2002, published 2006).
Values joined by “and” are separate entries in the source; they are usually repeats but may differ in a detail not shown here. Equal values may be shown once. Read-outs that look alike come from different tables or passages of the source.

Columns and labels:
Type in all cases: in vivo
[1] = tested on: Plasmopara viticola (PLASVI)
[2] = tested on: Plasmopara viticola (PLASVI); assay: whole plant or invertebrate; conditions: for pest or weed control at 1.85 ppm: 1.85 ppm alone; for pest or weed control at 5.56 ppm: 5.56 ppm alone
[3] = tested on: Phytophthora infestans (PHYTIN); conditions: 1DC
[4] = tested on: Phytophthora infestans (PHYTIN); assay: whole plant or invertebrate; conditions: for pest or weed control at 1.9 ppm: 1.90 ppm alone; for pest or weed control at 0.62 ppm: 0.62 ppm alone; for pest or weed control at 5.56 ppm: 5.56 ppm alone; for pest or weed control at 1.85 ppm: read-out: % Disease Control (observed)
[5] = PLASVI 3DP, applied alone at 1.1 ppm
[6] = Plasmopara viticola, 24 h, read-out: % Disease Control (observed), 1DP
[7] = Plasmopara viticola, 24 h, read-out: % Disease Control (observed), 1DP, Table 14
[8] = Plasmopara viticola, 48 h, read-out: % Disease Control (observed), 2DP
[9] = Plasmopara viticola, 72 h, read-out: % Disease Control (observed), 3DP
[10] = Plasmopara viticola, 168 h, read-out: % Disease Control (observed), 7DP
[11] = PHYTIN 3DP, applied alone at 1.1 ppm
[12] = Phytophthora infestans, 48 h, read-out: % Disease Control (observed), 2DP
[13] = Phytophthora infestans, 72 h, read-out: % Disease Control (observed), 3DP, 0.60 ppm alone
[14] = Phytophthora infestans, 72 h, read-out: % Disease Control (observed), 3DP

## COCC(=O)N(c1c(C)cccc1C)[C@H](C)C(=O)OC [Mefenoxam, mefenoxam]
[1]; in vivo
  % Disease Control (Observed): 94.7%
[2]; 1DP, 0.21 ppm alone
  % Disease Control (Observed): 33.3%
[2]; 1DP, 0.62 ppm alone
  % Disease Control (Observed): 82.5%
[2]; PLASVI 2DP, applied alone at 11.1 ppm
  % Disease Control (Observed): 38.6%
[2]; PLASVI 2DP, applied alone at 33.3 ppm
  % Disease Control (Observed): 66.7%
[3]; 1.85 ppm alone
  % Disease Control (Observed): 56.1%
[4]; 1DP, 0.60 ppm alone
  % Disease Control (Observed): 12.3%
[4]; PHYTIN 2DP, applied alone at 3.7 ppm
  % Disease Control (Observed): 12.3%
[4]; PHYTIN 2DP, applied alone at 11.1 ppm
  % Disease Control (Observed): 17.5%

## CC[C@H](CS(=O)(=O)C(C)c1ccc(C#N)cc1)NC(=O)Oc1ccc(F)cc1 (stereo partly drawn) [Formula III, 4-fluorophenyl(1S)-1-({[(1R,S)-(4-cyanophenyl)ethyl]sulfonyl}methyl)-propylcarbamate]
[1]; 1DC, 0.60 ppm alone
  % Disease Control (Observed): 5.3%
[1]; 1DC, 0.90 ppm alone
  % Disease Control (Observed): 0.0%
[1]; 1DC, 1.85 ppm alone
  % Disease Control (Observed): 17.5%
[1]; 1DC, 2.80 ppm alone
  % Disease Control (Observed): 8.8% and 16.0%
[1]; 1DC, 5.56 ppm alone
  % Disease Control (Observed): 17.5%
[1]; 1DC, 16.70 ppm alone
  % Disease Control (Observed): 45.6%
[2]; 1DP, 0.20 ppm alone
  % Disease Control (Observed): 8.8%
[2]; 1DP, 0.67 ppm alone
  % Disease Control (Observed): 49.1%
[2]; 4DP, 1.90 ppm alone
  % Disease Control (Observed): 26.30%
[2]; PLASVI 2DP, applied alone at 0.4 ppm
  % Disease Control (Observed): 8.8%
[2]; PLASVI 2DP, applied alone at 1.1 ppm
  % Disease Control (Observed): 22.8%
[2]; PLASVI 2DP, applied alone at 1.85 ppm
  % Disease Control (Observed): 7.0%
[2]; PLASVI 2DP, applied alone at 3.3 ppm
  % Disease Control (Observed): 42.1%
[2]; PLASVI 2DP, applied alone at 5.56 ppm
  % Disease Control (Observed): 19.3%
[2]; PLASVI 3DP, applied alone at 0.4 ppm
  % Disease Control (Observed): 1.8%
[2]; [5]
  % Disease Control (Observed): 12.3%
[2]; PLASVI 3DP, applied alone at 5.56 ppm
  % Disease Control (Observed): 31.6%
[2]; PLASVI 6DP, applied alone at 3.3 ppm
  % Disease Control (Observed): 12.3%
[2]; Plasmopara viticola, 24 h, read-out: % Disease Control (observed), 1DP, 0.20 ppm alone
  pest or weed control at 0.2 ppm: 1.8%
[2]; Plasmopara viticola, 24 h, read-out: % Disease Control (observed), 1DP, 0.21 ppm alone
  pest or weed control at 0.21 ppm: 14%
[2]; Plasmopara viticola, 24 h, read-out: % Disease Control (observed), 1DP, 0.62 ppm alone
  pest or weed control at 0.62 ppm: 17.5%
[2]; [6]
  pest or weed control at 1.85 ppm: 71.9%
  pest or weed control at 5.56 ppm: 78.9%
[2]; [7]
  pest or weed control at 1.85 ppm: 24.6%
  pest or weed control at 5.56 ppm: 78.9%
[2]; Plasmopara viticola, 48 h, read-out: % Disease Control (observed), 2DP, 0.62 ppm alone
  pest or weed control at 0.62 ppm: 1.8%
[2]; [8]
  pest or weed control at 1.85 ppm: 15.8%
  pest or weed control at 5.56 ppm: 56.1%
[2]; Plasmopara viticola, 72 h, read-out: % Disease Control (observed), 3DP, 0.21 ppm alone
  pest or weed control at 0.21 ppm: 0%
[2]; Plasmopara viticola, 72 h, read-out: % Disease Control (observed), 3DP, 0.30 ppm alone
  pest or weed control at 0.3 ppm: 0%
[2]; [9]
  pest or weed control at 5.56 ppm: 40.4%
[2]; [10]
  pest or weed control at 1.85 ppm: 14%
  pest or weed control at 5.56 ppm: 52.6%
[3]; 0.62 ppm alone
  % Disease Control (Observed): 0.0%
[3]; 0.90 ppm alone
  % Disease Control (Observed): 0.0%
[3]; 1.85 ppm alone
  % Disease Control (Observed): 35.1%
[3]; 1.90 ppm alone
  % Disease Control (Observed): 21.1%
[3]; 5.56 ppm alone
  % Disease Control (Observed): 5.3%
[3]; 8.30 ppm alone
  % Disease Control (Observed): 8.8%
[3]; 16.70 ppm alone
  % Disease Control (Observed): 31.6%
[4]; 4DP, 0.60 ppm alone
  % Disease Control (Observed): 15.8%
[4]; 4DP, 2.80 ppm alone
  % Disease Control (Observed): 34.2%
[4]; 4DP, 5.60 ppm alone
  % Disease Control (Observed): 21.10%
[4]; PHYTIN 2DP, applied alone at 0.4 ppm
  % Disease Control (Observed): 5.3%
[4]; PHYTIN 2DP, applied alone at 1.1 ppm
  % Disease Control (Observed): 15.8%
[4]; PHYTIN 2DP, applied alone at 5.56 ppm
  % Disease Control (Observed): 12.3%
[4]; PHYTIN 3DP, applied alone at 0.62 ppm
  % Disease Control (Observed): 3.5%
[4]; [11]
  % Disease Control (Observed): 12.3%
[4]; PHYTIN 6DP, applied alone at 1.1 ppm
  % Disease Control (Observed): 3.5%
[4]; PHYTIN 6DP, applied alone at 3.3 ppm
  % Disease Control (Observed): 33.3%
[4]; Phytophthora infestans, 24 h, read-out: % Disease Control (observed), 1DP, 0.60 ppm alone
  pest or weed control at 0.6 ppm: 3.5%
[4]; Phytophthora infestans, 24 h, read-out: % Disease Control (observed), 1DP
  pest or weed control at 1.9 ppm: 78.6%
[4]; [12]
  pest or weed control at 0.62 ppm: 8.8%
  pest or weed control at 5.56 ppm: 12.3%
[4]; Phytophthora infestans, 72 h, read-out: % Disease Control (observed), 3DP, 0.21 ppm alone
  pest or weed control at 0.21 ppm: 0%
[4]; [13]
  pest or weed control at 0.6 ppm: 73.7%
[4]; Phytophthora infestans, 72 h, read-out: % Disease Control (observed), 3DP, 0.90 ppm alone
  pest or weed control at 0.9 ppm: 1.8%
[4]; Phytophthora infestans, 72 h, read-out: % Disease Control (observed), 3DP, 2.80 ppm alone
  pest or weed control at 2.8 ppm: 47.4%
[4]; [14]
  pest or weed control at 5.56 ppm: 57.9%
[4]; Phytophthora infestans, 72 h, read-out: % Disease Control (observed), Table 10, PHYTIN (3DP) as printed
  pest or weed control at 5.56 ppm: 31.6%
[4]; Phytophthora infestans, 96 h
  pest or weed control at 1.85 ppm: 38.6%
[4]; in vivo
  % Disease Control (Observed): 26.3%

## COc1ccc(C(=CC(=O)N2CCOCC2)c2ccc(Cl)cc2)cc1OC [Dimethomorph, dimethomorph]
[1]; 1DC, 5.56 ppm alone
  % Disease Control (Observed): 8.8%
[2]; PLASVI 3DP, applied alone at 0.5 ppm
  % Disease Control (Observed): 3.5%
[2]; PLASVI 3DP, applied alone at 1.4 ppm
  % Disease Control (Observed): 22.8%
[2]; [9]
  pest or weed control at 1.85 ppm: 5.3%
  pest or weed control at 5.56 ppm: 63.2%
[3]; 5.56 ppm alone
  % Disease Control (Observed): 0.0%
[3]; 16.70 ppm alone
  % Disease Control (Observed): 29.8%
[3]; 50.00 ppm alone
  % Disease Control (Observed): 33.3%
[4]; PHYTIN 3DP, applied alone at 1.4 ppm
  % Disease Control (Observed): 3.5%
[4]; Phytophthora infestans, 72 h
  pest or weed control at 1.85 ppm: 12.3%
[4]; [14]
  pest or weed control at 0.62 ppm: 0%

## Cc1cccc(C)c1N(C(=O)CCl)C1CCOC1=O (centres unmarked) [Ofurace, ofurace]
[1]; 1DC, 0.60 ppm alone
  % Disease Control (Observed): 21.1%
[3]; 1.90 ppm alone
  % Disease Control (Observed): 12.3%
[3]; 5.60 ppm alone
  % Disease Control (Observed): 61.0%
[4]; [13]
  pest or weed control at 0.6 ppm: 0%
[4]; [14]
  pest or weed control at 1.9 ppm: 0%

## CCNC(=O)NC(=O)/C(C#N)=N/OC [Cymoxanil, cymoxanil]
[1]; 1DC, 5.56 ppm alone
  % Disease Control (Observed): 10.5%
[1]; 1DC, 16.70 ppm alone
  % Disease Control (Observed): 35.1%
[2]; [5]
  % Disease Control (Observed): 17.5%
[3]; 16.7 ppm alone
  % Disease Control (Observed): 49.1%
[4]; [11]
  % Disease Control (Observed): 1.8%
